Our source for the Kd values is PMC12781075, “Crosstalk between arachidonic acid metabolism and glycolysis drives integrated metabolic-inflammatory reprogramming in macrophages” (International Journal of Biological Sciences, 2026).

In one test the target is T1, PKM2(C49S) (Mus musculus, UniProt P52480, C49S).
T1 construct: gene Pkm; recombinant mouse PKM2 C49S (pET-28a, E. coli)
The test can be described thus: ITC (much weaker than wild type). The format is binding.

The target in test [1] is T2, pyruvate kinase M2 (PKM2) (Mus musculus, UniProt P52480).
T2 construct: gene Pkm; recombinant mouse PKM2 (pET-28a, E. coli)
The test can be described thus: ITC; LC/MS/MS peptide mapping of the adduct; CETSA and DARTS in lysates. The class given is binding.

T2 sequence (P52480 whole entry): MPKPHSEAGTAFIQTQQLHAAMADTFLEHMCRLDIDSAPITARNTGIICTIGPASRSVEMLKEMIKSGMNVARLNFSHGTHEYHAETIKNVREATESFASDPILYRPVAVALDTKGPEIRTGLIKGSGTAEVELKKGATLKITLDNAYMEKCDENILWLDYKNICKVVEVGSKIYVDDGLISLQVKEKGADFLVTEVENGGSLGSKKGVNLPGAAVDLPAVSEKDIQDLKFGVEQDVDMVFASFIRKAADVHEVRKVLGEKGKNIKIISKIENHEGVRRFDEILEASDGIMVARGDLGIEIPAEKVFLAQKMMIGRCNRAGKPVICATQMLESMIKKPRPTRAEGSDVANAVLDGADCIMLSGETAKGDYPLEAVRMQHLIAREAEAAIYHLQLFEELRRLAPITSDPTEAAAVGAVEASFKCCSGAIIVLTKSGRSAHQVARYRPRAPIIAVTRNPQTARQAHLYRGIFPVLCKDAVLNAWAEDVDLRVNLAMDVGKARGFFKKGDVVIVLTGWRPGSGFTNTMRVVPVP
T1 sequence (P52480 whole entry C49S): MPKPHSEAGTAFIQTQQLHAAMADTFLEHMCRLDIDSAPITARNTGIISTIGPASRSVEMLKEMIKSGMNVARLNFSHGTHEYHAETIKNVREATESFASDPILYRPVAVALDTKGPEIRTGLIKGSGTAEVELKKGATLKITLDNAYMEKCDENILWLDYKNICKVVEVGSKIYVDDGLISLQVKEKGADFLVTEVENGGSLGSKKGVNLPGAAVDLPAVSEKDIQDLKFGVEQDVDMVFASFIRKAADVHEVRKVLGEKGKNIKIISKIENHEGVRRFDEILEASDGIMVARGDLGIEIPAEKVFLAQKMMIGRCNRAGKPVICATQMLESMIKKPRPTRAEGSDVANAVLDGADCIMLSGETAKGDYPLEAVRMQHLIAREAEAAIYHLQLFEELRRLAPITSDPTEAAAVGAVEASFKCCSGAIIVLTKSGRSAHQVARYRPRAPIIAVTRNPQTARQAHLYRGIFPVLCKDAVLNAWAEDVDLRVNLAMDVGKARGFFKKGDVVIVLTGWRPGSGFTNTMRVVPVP

For `CCCCCC(=O)/C=C/[C@@H]1[C@@H](C/C=C\CCCC(=O)O)[C@@H](O)C[C@H]1O` [15-keto-PGF2α], the Kd – broadly, a measure of binding affinity in units of concentration – at PKM2(C49S) was 37.6 µM; in test [1] it was 0.918 µM.
